Experimental data reported in patent publication EP0573682A1, “Tea polyphenols as anti-hyperglycemic agents” (MITSUI NORIN CO., LTD., priority 1992, dated 1993).

What was measured:
[1] = Acute toxicity; assay type: in vivo, mice; settings: mouse, in vivo, ip; administered intraperitonealy; 5 week old female ICR mice; read-out: LD₅₀ after one week
Experimental: (§1) (-)Epigallocatechin gallate was tested with respect to its acute toxicity. Where (-)epigallocatechin gallate was perorally administered to 6 week ICR male mice, LD₅₀ after one week was 2314mg/kg. Where (-)epigallocatechin was administered intraperitonealy to 5 week old female ICR mice, LD₅₀ after one week was 150mg/kg.

[2] = system: ICR mice; test: Acute toxicity; assay type: in vivo; settings: perorally administered; 6 week ICR male mice; 10080 min
Experimental: as §1

| Structure (SMILES) | LD50 at 168 h [1] | LD₅₀ after one week [2] |
| --- | --- | --- |
| Oc1cc(O)c2c(c1)O[C@H](c1cc(O)c(O)c(O)c1)[C@H](O)C2 [(-)epigallocatechin, (-) Epigallocatechin] | 150 mg/kg | – |
| O=C(O[C@@H]1Cc2c(O)cc(O)cc2O[C@@H]1c1cc(O)c(O)c(O)c1)c1cc(O)c(O)c(O)c1 [(-)epigallocatechin gallate, (-) Epigallocatechin gallate] | – | 2314 mg/kg |
